According to US20050288373A1, “Methods of treating various conditions by administration of sustained release L-arginine” (priority 2002, published 2005):

Tests used:
triglycerides = assay: Triglyceride levels pre- and post-treatment; type: in vivo, human; conditions: for No. of subjects outside normal range, triglycerides: 15 subjects
total cholesterol = assay: Change in total cholesterol levels; type: in vivo, human; conditions: resulting from treatment, 3 weeks
Protocol: (§1) Endothelium-dependent vasodilation was assessed by brachial artery ultrasound using computer-assisted image analysis; ADMA and L-arginine plasma concentrations were determined by a validated HPLC method.
(§2) In the study described in Example 15, the change in total cholesterol (TC), LDL cholesterol, HDL cholesterol, and triglycerides was analyzed pre- and post-treatment.

LDL cholesterol = conditions: resulting from treatment, 3 weeks
Protocol: as §1, §2

HDL cholesterol = conditions: resulting from treatment, 3 weeks
Protocol: as §1, §2

[1] = resulting from treatment, 3 weeks

## CCC(C)(C)C(=O)O[C@H]1C[C@@H](C)C=C2C=C[C@H](C)[C@H](CC[C@@H]3C[C@@H](O)CC(=O)O3)[C@H]21 [Simvastatin, simvastatin]
triglycerides; after treatment, 3 weeks
  Triglyceride Levels, Mean: 140.2 mg/dL
  Triglyceride Levels, Median: 134.0 mg/dL
  Triglyceride Levels, Min-Max: 58 to 440 mg/dL
  No. of subjects outside normal range, triglycerides: 1
triglycerides; before treatment
  Triglyceride Levels, Mean: 165.1 mg/dL
  Triglyceride Levels, Median: 155.0 mg/dL
  Triglyceride Levels, Min-Max: 51 to 337 mg/dL
  No. of subjects outside normal range, triglycerides: 5
triglycerides; [1]
  Change in Triglyceride Levels, Mean: -24.9 mg/dL
  Change in Triglyceride Levels, Median: -38.0 mg/dL
  Change in Triglyceride Levels, Min-Max: -143 to 205 mg/dL
Total cholesterol
  Change in Total Cholesterol Levels, Mean: -76.3 mg/dL
  Change in Total Cholesterol Levels, Median: -78.0 mg/dL
  Change in Total Cholesterol Levels, Min-Max: -134 to -14 mg/dL
LDL cholesterol
  Change in Low Density Lipoprotein Cholesterol Levels, Mean: -70.7 mg/dL
  Change in Low Density Lipoprotein Cholesterol Levels, Median: -78.0 mg/dL
  Change in Low Density Lipoprotein Cholesterol Levels, Min-Max: -121 to -20 mg/dL
HDL cholesterol
  Change in High Density Lipoprotein Cholesterol Levels, Mean: 1.2 mg/dL
  Change in High Density Lipoprotein Cholesterol Levels, Median: 0.0 mg/dL
  Change in High Density Lipoprotein Cholesterol Levels, Min-Max: -7 to 20 mg/dL
